From ChEMBL document CHEMBL4364251, “Design, synthesis and biological evaluation of new quinoline derivatives as potential antitumor agents” (Eur J Med Chem, 2019)

Columns and labels:
Type in all cases: functional, cell-based
[1] = system: A549; assay: Antiproliferative activity against human A549 cells incubated for 48 hrs by MTT assay; conditions: A549, 48 h
[2] = system: NCI-H1650; assay: Antiproliferative activity against human NCI-H1650 cells incubated for 48 hrs by MTT assay; conditions: NCI-H1650, 48 h
[3] = system: BGC-823; assay: Antiproliferative activity against human BGC823 cells incubated for 48 hrs by MTT assay; conditions: BGC-823, 48 h
[4] = system: RKO; assay: Antiproliferative activity against human RKO cells incubated for 48 hrs by MTT assay
[5] = system: HeLa; assay: Antiproliferative activity against human HeLa cells incubated for 48 hrs by MTT assay
[6] = system: A2780; assay: Antiproliferative activity against human A2780 cells incubated for 48 hrs by MTT assay; conditions: A2780, 48 h
[7] = system: HCT-116; assay: Antiproliferative activity against human HCT116 cells incubated for 48 hrs by MTT assay; conditions: HCT-116, 48 h

| Structure (SMILES) | IC50 [1] | IC50 [2] | IC50 [3] | IC50 [4] | IC50 [5] | IC50 [6] | IC50 [7] |
| --- | --- | --- | --- | --- | --- | --- | --- |
| COc1cccc(Nc2ccnc3cc(OC)ccc23)c1 | > 10 µM | > 10 µM | > 10 µM | > 10 µM | > 10 µM | > 10 µM | > 10 µM |
| COc1ccc2c(Nc3cccc(Br)c3)ccnc2c1 | > 10 µM | > 10 µM | > 10 µM | > 10 µM | > 10 µM | > 10 µM | > 10 µM |
| Fc1cccc(Nc2ccnc3cc(F)ccc23)c1 | > 10 µM | > 10 µM | > 10 µM | > 10 µM | > 10 µM | > 10 µM | > 10 µM |
| CCCCOc1ccc2c(Nc3cccc(F)c3)ccnc2c1 | > 10 µM | > 10 µM | 9.42 µM | > 10 µM | 1.43 µM | 8.2 µM | > 10 µM |
| COc1cccc(Nc2ccnc3cc(F)ccc23)c1 | > 10 µM | > 10 µM | > 10 µM | > 10 µM | > 10 µM | > 10 µM | > 10 µM |
| Clc1cccc(Nc2ccnc3cc(Br)ccc23)c1 | > 10 µM | > 10 µM | > 10 µM | > 10 µM | > 10 µM | > 10 µM | > 10 µM |
| COc1cccc(Nc2ccnc3cc(OCc4ccccc4)ccc23)c1 | > 10 µM | > 10 µM | > 10 µM | > 10 µM | > 10 µM | > 10 µM | > 10 µM |
| Fc1cccc(Nc2ccnc3cc(Br)ccc23)c1 | > 10 µM | > 10 µM | > 10 µM | > 10 µM | > 10 µM | > 10 µM | > 10 µM |
| CCCCCCCCOc1ccc2c(Nc3cccc([N+](=O)[O-])c3)ccnc2c1 | > 10 µM | > 10 µM | > 10 µM | > 10 µM | > 10 µM | > 10 µM | > 10 µM |
| CCCCOc1ccc2c(Nc3cccc([N+](=O)[O-])c3)ccnc2c1 | > 10 µM | 9.56 µM | 6.11 µM | 7.81 µM | 4.35 µM | 5.17 µM | 6.83 µM |
| COc1cccc(Nc2ccnc3cc(Cl)ccc23)c1 | > 10 µM | > 10 µM | > 10 µM | > 10 µM | > 10 µM | > 10 µM | > 10 µM |
| COc1cccc(Nc2ccnc3cc(OCc4ccc(F)cc4)ccc23)c1 | > 10 µM | > 10 µM | > 10 µM | > 10 µM | > 10 µM | > 10 µM | > 10 µM |
| COc1ccc2c(Nc3ccc(Cl)c(Cl)c3)ccnc2c1 | > 10 µM | > 10 µM | > 10 µM | > 10 µM | > 10 µM | > 10 µM | > 10 µM |
| Brc1cccc(Nc2ccnc3cc(Br)ccc23)c1 | > 10 µM | > 10 µM | > 10 µM | > 10 µM | > 10 µM | > 10 µM | > 10 µM |
| C=CCOc1ccc2c(Nc3cccc(F)c3)ccnc2c1 | > 10 µM | > 10 µM | > 10 µM | > 10 µM | 0.31 µM | 1.19 µM | > 10 µM |
| COc1cccc(Nc2ccnc3cc(Br)ccc23)c1 | > 10 µM | > 10 µM | > 10 µM | > 10 µM | > 10 µM | > 10 µM | > 10 µM |
| COc1ccc2c(Nc3cccc(O)c3)ccnc2c1 | > 10 µM | > 10 µM | > 10 µM | > 10 µM | > 10 µM | > 10 µM | > 10 µM |
| O=[N+]([O-])c1cccc(Nc2ccnc3cc(Cl)ccc23)c1 | > 10 µM | > 10 µM | > 10 µM | > 10 µM | > 10 µM | > 10 µM | > 10 µM |
| CCOc1ccc2c(Nc3cccc(OC)c3)ccnc2c1 | > 10 µM | > 10 µM | > 10 µM | > 10 µM | 0.41 µM | 9.55 µM | > 10 µM |
| CC(C)Oc1ccc2c(Nc3cccc(F)c3)ccnc2c1 | > 10 µM | > 10 µM | > 10 µM | > 10 µM | 0.2 µM | 0.59 µM | > 10 µM |
| CCCCCCCCOc1ccc2c(Nc3cccc(OC)c3)ccnc2c1 | > 10 µM | 8.13 µM | > 10 µM | > 10 µM | 7.72 µM | 8.21 µM | > 10 µM |
| COc1cccc(Nc2ccnc3cc(OC(C)C)ccc23)c1 | > 10 µM | > 10 µM | 4.73 µM | > 10 µM | 0.23 µM | 0.65 µM | > 10 µM |
